Like-named read-outs stand apart in the source and are kept apart here.
How the values were obtained:
[1] = Rat in vivo pharmacokinetic assay (IV and PO); set-up: species or system SD rats; settings: plasma, male SD rat; for half-life: read-out: T1/2 (half-life) (converted); for bioavailability: PO 5 mg/kg versus IV 2 mg/kg, read-out: F % (absolute bioavailability)
Protocol: Rat In Vivo Pharmacokinetic Assay for the Present Compounds
Assay animals: 6-8 weeks aged male SD rats (purchased from Vital River Laboratories), 6 rats per compound, weighing 220-250 g.
Dissolved in an appropriate solvent (5% DMSO+95% (6% HP-β-CD solution)).
Administration: See Table 2
Blood collection: each of about 100 μL whole blood were collected at 0 h, 0.083 h, 0.25 h, 0.5 h, 1 h, 2 h, 4 h, 6 h, 8 h and 24 h. The collected blood samples were centrifuged at 4° C. at 8000 rpm in a low temperature high-speed centrifuge (5415R, Eppendorf) for 6 mins to separate the blood plasm. The separated plasm was preserved at −80° C. in a refrigerator.
20 μL of the plasm was carefully taken out, to which was added 200 μL acetonitrile solution (containing internal standard KBP-1204 50 ng/ml). The plasm was subjected to a vortex at 1500 rpm for 3 mins, and then centrifuged at 12000 rpm for 5 mins. The supernatant was taken and was analyzed with LC-MS/MS (API4000, Applied Biosystems). Equation Absolute bioavailability F %=[AUC]INF(PO)*Dose(IV)/[AUC]INF(IV)*Dose(PO)

[2] = Urine glucose assay in normal rats; assay type: in vivo, Sprague-Dawley rats; settings: normal male SD rats, 10 mg/Kg oral, glucose 5 g/kg, 24 h urine; for Urine glucose mass: standardized to 200 g body weight
Protocol: SPF-grade male Sprague-Dawley rats, 6-weeks aged, were used in this urine glucose assay. After the rats were fasted for 15 h, the rats were divided randomly into a blank control group, a model group, a positive drug group and a test drug group according to their body weights. The rats were put into metabolic cages where water was available but food was unavailable. The urines in this 24 hours were collected. Then, the drugs were orally administered (10 mg/Kg) and then the glucose was fed (5 g/kg) to the animals. Then the animals were put into metabolic cages. The rats were supplemented with food one hour after the drug administration and the glucose feeding, and then could freely contact the diets. The urines in this 24 hours were collected and recorded. The collected urines were centrifuged at 3000 rpm for 15 mins. The residues were removed. The supernatants were taken and the urine glucose contents therein were measured.
The urine glucose contents were standardized based on the body weight of 200 g. The data were expressed in average±standard deviation. The resulting values were analyzed with one-way ANOVA, and the comparisons between groups were conducted with one-way ANOVA and Dunnett test, where p<0.05 was considered to have a statistical significance.

[3] = molecular target: T1, human SGLT1 (Homo sapiens, UniProt P13866); assay: Inhibition of sodium dependent [14C]-AMG uptake in CHO cells stably expressing human SGLT1; assay type: cell-based; settings: CHO cells expressing human SGLT1, [14C]-AMG uptake
T1 sequence (P13866 1-664): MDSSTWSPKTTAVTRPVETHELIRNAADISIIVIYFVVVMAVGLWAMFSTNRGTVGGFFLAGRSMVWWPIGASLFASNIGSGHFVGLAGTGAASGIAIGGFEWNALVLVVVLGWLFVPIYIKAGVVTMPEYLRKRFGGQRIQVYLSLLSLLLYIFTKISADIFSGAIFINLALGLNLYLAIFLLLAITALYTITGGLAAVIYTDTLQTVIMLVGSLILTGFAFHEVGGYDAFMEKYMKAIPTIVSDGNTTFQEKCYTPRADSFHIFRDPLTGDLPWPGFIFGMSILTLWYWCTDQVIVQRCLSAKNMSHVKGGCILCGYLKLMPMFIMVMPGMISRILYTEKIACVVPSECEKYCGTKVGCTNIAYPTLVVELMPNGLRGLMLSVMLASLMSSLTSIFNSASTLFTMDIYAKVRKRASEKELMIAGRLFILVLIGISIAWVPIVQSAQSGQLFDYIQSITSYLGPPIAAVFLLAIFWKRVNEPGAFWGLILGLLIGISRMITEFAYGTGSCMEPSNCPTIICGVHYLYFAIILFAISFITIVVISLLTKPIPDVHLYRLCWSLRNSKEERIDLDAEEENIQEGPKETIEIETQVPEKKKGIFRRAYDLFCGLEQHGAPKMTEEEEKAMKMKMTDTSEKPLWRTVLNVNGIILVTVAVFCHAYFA
Protocol: (§1) In the in vitro evaluation method according to the present invention, the human SGLT2 and SGLT1 sequences were transfected to Chinese hamster ovary cells to express stably. By measuring inhibition of the sodium dependent adsorption of [^14C]-labeled […]-D-glucopyranoside (AMG) into the cells, the half-inhibition concentration IC50 was determined.
(§2) Buffer A (KRH-Na+): 120 mM NaCl, 4.7 mM KCl, 1.2 mM MgCl2, 2.2 mM CaCl2, 10 mM HEPES (PH 7.4 with 1 mM Tris).
(§3) Buffer A− (KRH-NMG): 120 mM NMG, 4.7 mM KCl, 1.2 mM MgCl2, 2.2 mM CaCl2, 10 mM HEPES (PH 7.4 with 1 mM Tris).
(§4) Buffer D: 120 mM NaCl, 4.7 mM KCl, 1.2 mM MgCl2, 2.2 mM CaCl2, 10 mM HEPES, 0.5 mM phlorizin (PH 7.4 with 1 mM Tris).
(§5) Assay method: Human SGLT2 and SGLT1 sequences were stably expressed in the CHO cells. The cell culture was conducted in a 96-well plate for 12 hr. The plate was washed with KRH-Na+ (Buffer A) or KRH-NMG (Buffer A−) buffering solution for three times, 200 μL/well. Then the plate was washed with a buffering solution containing Buffer A or Buffer A− plus [^14C]-AMG (10 μCi/mL), 100 μL/well. The cell culture was conducted at 37° C. for 1 h. Then, 100 μL of ice pre-cooled buffering solution (Buffer D) was added to terminate the assay. The plate was washed for 5 times. Then 100 mM NaOH solution was added, 20 μL/well, and the centrifugation at 600 rpm was conducted for 5 mins. Then Microscint 40 solution was added, 80 μl/well, and the centrifugation at 600 rpm was conducted for 5 mins. Finally, the radioactivity of [^14C]-AMG was detected with MicroBeta Trilux (purchased from PerkinElmer Co. Ltd.) according to the scintillation counting method, and the half-inhibition concentration IC50 was calculated.
(§6) The above assays were entrusted to Shanghai ChemPartner Co. Ltd.

[4] = molecular target: T2, human SGLT2 (Homo sapiens, UniProt P31639); assay: Inhibition of sodium dependent [14C]-AMG uptake in CHO cells stably expressing human SGLT2; assay type: cell-based; settings: for IC50: CHO cells expressing human SGLT2, [14C]-AMG uptake; for Selectivity: SGLT1 IC50 versus SGLT2 IC50
T2 sequence (P31639 1-672): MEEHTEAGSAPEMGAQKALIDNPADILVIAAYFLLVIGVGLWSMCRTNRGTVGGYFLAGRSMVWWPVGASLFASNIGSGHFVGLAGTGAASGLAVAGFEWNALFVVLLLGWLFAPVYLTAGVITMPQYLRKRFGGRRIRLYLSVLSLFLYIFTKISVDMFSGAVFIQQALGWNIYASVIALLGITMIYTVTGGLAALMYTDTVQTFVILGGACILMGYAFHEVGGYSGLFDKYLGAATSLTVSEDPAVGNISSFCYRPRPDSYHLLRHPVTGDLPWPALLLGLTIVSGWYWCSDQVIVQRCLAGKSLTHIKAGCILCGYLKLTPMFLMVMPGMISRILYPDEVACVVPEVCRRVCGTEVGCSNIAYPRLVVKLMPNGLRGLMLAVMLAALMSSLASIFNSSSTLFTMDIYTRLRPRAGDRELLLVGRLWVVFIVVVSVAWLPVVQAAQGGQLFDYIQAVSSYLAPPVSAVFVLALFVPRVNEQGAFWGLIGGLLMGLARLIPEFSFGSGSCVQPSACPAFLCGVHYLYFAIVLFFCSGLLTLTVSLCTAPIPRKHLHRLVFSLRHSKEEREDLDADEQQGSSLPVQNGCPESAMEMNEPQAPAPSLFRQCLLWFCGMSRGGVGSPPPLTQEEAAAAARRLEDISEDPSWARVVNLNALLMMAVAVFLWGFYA
Protocol: as §1, §2, §3, §4, §5, §6

Row | Structure (SMILES) | AUC(0-t) ([1]; IV, 2 mg/kg) | AUC(0-inf) ([1]; IV, 2 mg/kg) | half-life ([1]; IV, 2 mg/kg) | bioavailability [1] | AUC(0-t) ([1]; PO, 5 mg/kg) | AUC(0-inf) ([1]; PO, 5 mg/kg) | half-life ([1]; PO, 5 mg/kg) | Urine volume [2] | Urine glucose mass [2] | IC50 [3] | IC50 [4] | Selectivity [4]
1 | OC[C@H]1O[C@@H](c2ccc(Cl)c(Cc3ccc(O[C@H]4CCOC4)cc3)c2)[C@H](O)[C@@H](O)[C@@H]1O [BI-10773, reference compound] | 1090 ± 138 ng·h/mL | 1100 ± 142 ng·h/mL | 0.7 ± 0.07 h | 16.5% | 426 ± 116 ng·h/mL | 457 ± 114 ng·h/mL | 1.33 ± 0.33 h | 16.63 mL | 866.67 mg/200 g | – | – | –
2 | OC[C@H]1OC(c2ccc(Cl)c(Cc3ccc(OC4CC5CC5C4)cc3)c2)[C@H](O)[C@@H](O)[C@@H]1O (some centres unmarked) [Compound 4] | 12400 ± 732 ng·h/mL | 13500 ± 451 ng·h/mL | 6.81 ± 0.74 h | 87.2% | 26300 ± 1790 ng·h/mL | 29500 ± 2720 ng·h/mL | 7.33 ± 0.96 h | 18.50 mL | 1197.79 mg/200 g | 2400 nM | – | –
3 | OC[C@H]1OC(c2ccc(Cl)c(Cc3ccc(OC4C5COCC54)cc3)c2)[C@H](O)[C@@H](O)[C@@H]1O (some centres unmarked) [Compound 10] | 972 ± 164 ng·h/mL | 984 ± 167 ng·h/mL | 0.88 ± 0.21 h | 18.9 ± 6.52% | 430 ± 166 ng·h/mL | 464 ± 160 ng·h/mL | 1.77 ± 0.47 h | 16.25 mL | 972.99 mg/200 g | 1890 nM | 3.16 nM | 596
4 | OC[C@H]1OC(c2ccc(Cl)c(Cc3ccc(C4CCC5(CCC5)CC4)cc3)c2)[C@H](O)[C@@H](O)[C@@H]1O (some centres unmarked) [Compound 13] | 6950 ± 100 ng·h/mL | 7010 ± 148 ng·h/mL | 3.75 ± 0.6 h | 35.9 ± 7.78% | 6220 ± 1350 ng·h/mL | 6290 ± 1360 ng·h/mL | 3.36 ± 0.46 h | – | – | 29100 nM | 3.99 nM | 73
